Molecular target: Aldehyde dehydrogenase, mitochondrial (Mesocricetus auratus)
Experiment: Inhibition of hamster liver aldehyde dehydrogenase ALDH-2

SMILES	IC50 [nM]
CCCCCCC(Oc1ccc2c(=O)c(-c3ccc(O)cc3)coc2c1)C(=O)OCC (configuration not stated) [2-[3-(4-Hydroxy-phenyl)-4-oxo-4H-chromen-7-yloxy]-octanoic acid ethyl ester]	7200
CCOC(=O)CCCCOc1ccc2c(=O)c(-c3ccc(O)cc3)coc2c1 [5-[3-(4-Hydroxy-phenyl)-4-oxo-4H-chromen-7-yloxy]-pentanoic acid ethyl ester]	240
NCCCCOc1ccc2c(=O)c(-c3ccc(O)cc3)coc2c1 [7-(4-Amino-butoxy)-3-(4-hydroxy-phenyl)-chromen-4-one]	250
O=c1c(-c2ccc(O)cc2)coc2cc(OCCCCCCO)ccc12 [7-(6-Hydroxy-hexyloxy)-3-(4-hydroxy-phenyl)-chromen-4-one]	120
O=c1c(-c2ccc(O)cc2)coc2cc(OCCCCCCCCCO)ccc12 [7-(9-Hydroxy-nonyloxy)-3-(4-hydroxy-phenyl)-chromen-4-one]	700
O=c1c(-c2ccc(O)cc2)coc2cc(OCCCCCCCCCCCCO)ccc12 [7-(12-Hydroxy-dodecyloxy)-3-(4-hydroxy-phenyl)-chromen-4-one]	1700
CCCCCCCCCCCCOc1ccc2c(=O)c(-c3ccc(O)cc3)coc2c1 [7-(dodecyloxy)-3-(4-hydroxyphenyl)-4H-chromen-4-one]	> 9000
C=CCOc1ccc2c(=O)c(-c3ccc(O)cc3)coc2c1 [7-Allyloxy-3-(4-hydroxy-phenyl)-chromen-4-one]	180
CCOc1ccc2c(=O)c(-c3ccc(O)cc3)coc2c1 [7-Ethoxy-3-(4-hydroxy-phenyl)-chromen-4-one]	80
C=CCCCCOc1ccc2c(=O)c(-c3ccc(O)cc3)coc2c1 [7-Hex-5-enyloxy-3-(4-hydroxy-phenyl)-chromen-4-one]	150
CCCCCCOc1ccc2c(=O)c(-c3ccc(O)cc3)coc2c1 [7-Hexyloxy-3-(4-hydroxyphenyl)chromen-4-one]	1500
O=C(O)CCCCCCCOc1ccc2c(=O)c(-c3ccc(O)cc3)coc2c1 [8-(3-(4-hydroxyphenyl)-4-oxo-4H-chromen-7-yloxy)octanoic acid]	40

Now from value to compound:

IC50 [nM]	SMILES
1200	O=C(O)COc1ccc2c(=O)c(-c3ccc(O)cc3)coc2c1 [2-(3-(4-hydroxyphenyl)-4-oxo-4H-chromen-7-yloxy)acetic acid]
4500	CCCCC(Oc1ccc2c(=O)c(-c3ccc(O)cc3)coc2c1)C(=O)OCC (configuration not stated) [2-[3-(4-Hydroxy-phenyl)-4-oxo-4H-chromen-7-yloxy]-hexanoic acid ethyl ester]
2000	CCCCCCC(Oc1ccc2c(=O)c(-c3ccc(O)cc3)coc2c1)C(=O)O (configuration not stated) [2-[3-(4-Hydroxy-phenyl)-4-oxo-4H-chromen-7-yloxy]-octanoic acid]
2500	CC(Oc1ccc2c(=O)c(-c3ccc(O)cc3)coc2c1)C(=O)O (configuration not stated) [2-[3-(4-Hydroxy-phenyl)-4-oxo-4H-chromen-7-yloxy]-propionic acid]
80	CC(C)Oc1ccc2c(=O)c(-c3ccc(O)cc3)coc2c1 [3-(4-Hydroxy-phenyl)-7-isopropoxy-chromen-4-one]
100	O=C(O)CCCCOc1ccc2c(=O)c(-c3ccc(O)cc3)coc2c1 [5-[3-(4-Hydroxy-phenyl)-4-oxo-4H-chromen-7-yloxy]-pentanoic acid]
280	CCOC(=O)CCCCCOc1ccc2c(=O)c(-c3ccc(O)cc3)coc2c1 [6-[3-(4-Hydroxy-phenyl)-4-oxo-4H-chromen-7-yloxy]-hexanoic acid ethyl ester]
40	O=c1c(-c2ccc(O)cc2)coc2cc(OCCOCCOCCO)ccc12 [7-(2-(2-(2-hydroxyethoxy)ethoxy)ethoxy)-3-(4-hydroxyphenyl)-4H-chromen-4-one]
100	NCCCCCCOc1ccc2c(=O)c(-c3ccc(O)cc3)coc2c1 [7-(6-Amino-hexyloxy)-3-(4-hydroxy-phenyl)-chromen-4-one]
150	CC1=C(c2ccccc2)C(=O)OC2CC(Cl)CCC12 (configuration not stated) [7-Chloro-4-methyl-3-phenyl-4a,5,6,7,8,8a-hexahydro-chromen-2-one]
50	O=C(O)CCCCCCOc1ccc2c(=O)c(-c3ccc(O)cc3)coc2c1 [7-[3-(4-Hydroxy-phenyl)-4-oxo-4H-chromen-7-yloxy]-heptanoic acid]
50	O=C(O)CCCCCCCCCOc1ccc2c(=O)c(-c3ccc(O)cc3)coc2c1 [10-(3-(4-hydroxyphenyl)-4-oxo-4H-chromen-7-yloxy)decanoic acid]
130	O=C(O)CCCCCCCCCCCOc1ccc2c(=O)c(-c3ccc(O)cc3)coc2c1 [12-(3-(4-hydroxyphenyl)-4-oxo-4H-chromen-7-yloxy)dodecanoic acid]
> 9000	O=C(O)CCCCCCCCCCCCCCCOc1ccc2c(=O)c(-c3ccc(O)cc3)coc2c1 [16-[3-(4-Hydroxy-phenyl)-4-oxo-4H-chromen-7-yloxy]-hexadecanoic acid]
130	CCOC(=O)COc1ccc2c(=O)c(-c3ccc(O)cc3)coc2c1 [[3-(4-Hydroxy-phenyl)-4-oxo-4H-chromen-7-yloxy]-acetic acid ethyl ester]

— BindingDB's records for doi:10.1021/jm0101390 (Harvard Medical School, 2001)
